Source: ChEMBL document CHEMBL4393728, “1-Phenyl-dihydrobenzoindazoles as novel colchicine site inhibitors: Structural basis and antitumor efficacy” (Eur J Med Chem, 2019)
pIC50: −log10 of the molar value. Values after ≈ are worked out from the molar mass of the structure shown. Active and inactive are the calls of the source. No cut-off for these calls is given here.

Experiments:
Tubulin = Tubulin (Bos taurus, UniProt Q6B856+Q862L2+Q862F3); test: Inhibition of bovine brain tubulin polymerization measured every 1 min for 60 mins by turbidimetric assay
COLO 205 [1] = test: Antiproliferative activity against human COLO205 cells assessed as reduction in cell viability incubated for 72 hrs by MTT assay; assay type: functional, cell-based; conditions: COLO 205, 72 h
HCT-116 [2] = test: Antitumor activity against human HCT116 cells xenografted in BALB/c mouse assessed as reduction in tumor growth at 20 mg/kg, iv via tail once every 4 days for 16 days; assay type: functional, organism-based
[3] = Toxicity in BALB/c mouse xenografted with COLO205 cells assessed as reduction in body weight at 20 mg/kg, iv via tail once every 4 days for 16 days; assay type: organism-based; conditions: in vivo
[4] = Toxicity in BALB/c mouse xenografted with HCT116 cells assessed as reduction in body weight at 20 mg/kg, iv via tail once every 4 days for 16 days; assay type: organism-based; conditions: in vivo
COLO 205 [5] = test: Antitumor activity against human COLO205 cells xenografted in BALB/c mouse assessed as reduction in tumor growth at 20 mg/kg, iv via tail once every 4 days for 16 days; assay type: functional, organism-based
HCT-116 [6] = test: Antiproliferative activity against human HCT116 cells assessed as reduction in cell viability incubated for 72 hrs by MTT assay; assay type: functional, cell-based; conditions: HCT-116, 72 h
[7] = Solubility of compound in normal saline; assay type: physicochemical

SMILES | IC50 (Tubulin) [nM] | pIC50 (COLO 205 [1]) | other results
COc1ccc(-c2c3c(nn2-c2ccccc2)CCc2c-3cc(OC)c(OC)c2OC)cc1F | > 10000 | < 5.00 | 
COc1ccc(/C=C2\c3cc(OC)c(OC)c(OC)c3CC[C@@H]2O)cc1 | > 10000 | 5.09 | 
COc1ccc(-c2[nH]nc3c2-c2cc(OC)c(OC)c(OC)c2CC3)cc1NC(=O)[C@@H](N)CO.Cl | > 10000 | 5.68 | Activity (HCT-116 [2]): Active; Activity [3]: Non-Toxic; Activity [4]: Non-Toxic; Activity (COLO 205 [5]): Active; pIC50 (HCT-116 [6]): 5.71
COc1ccc(-c2[nH]nc3c2-c2cc(OC)c(OC)c(OC)c2CC3)cc1N | 1600 | 9.00 | solubility [7]: 1000 µg/mL (≈ 2620 µM); pIC50 (HCT-116 [6]): 9.00
COc1ccc(-c2[nH]nc3c2-c2cc(OC)c(OC)c(OC)c2CC3)cc1F | 9200 | 8.70 | 
COc1ccc(/C=C\c2cc(OC)c(OC)c(OC)c2)cc1O [COMBRETASTATIN A4] |  |  | pIC50 (HCT-116 [6]): 9.00
COc1ccc(-c2[nH]nc3c2-c2cc(OC)c(OC)c(OC)c2CC3)cc1[N+](=O)[O-] | > 10000 | 6.52 | 
COc1ccc(-c2c3c(nn2C)CCc2c-3cc(OC)c(OC)c2OC)cc1F | > 10000 | 5.91 | 
COc1ccc(/C=C2\c3cc(OC)c(OC)c(OC)c3CC[C@H]2O)cc1 | > 10000 | 5.53 | 
COc1ccc(-c2c3c(nn2C)CCc2c-3cc(OC)c(OC)c2OC)cc1 | > 10000 | 5.47 | 
COc1ccc(-c2c3c(nn2CCO)CCc2c-3cc(OC)c(OC)c2OC)cc1F | > 10000 | 5.54 | 
